{"source": "patent US7045126B2", "about": "“Histone deacetylase-8 proteins, nucleic acids, and methods for use” (Applera Corporation, priority 1999, dated 2006)", "origin": "cited, not measured here", "key": {"tumor": {"test_system": "tumor", "conditions": "tumor bearing nude mice"}, "[1]": {"test_system": "acute promyelocytic leukemia (APL)", "conditions": "incl. retinoic acid resistant forms"}, "cell cycle": {"test_system": "cell cycle", "conditions": "variety of systems"}}}
{"smiles": "Nc1ccccc1NC(=O)c1ccc(CNC(=O)OCc2cccnc2)cc1", "note": "[MS-27275]", "values": [{"measurement": "histone hyperacetylation", "setting": "histones", "result": "induces histone hyperacetylation"}, {"measurement": "inhibition of tumor growth", "setting": "tumor", "result": "demonstrates efficacy in inhibiting tumor growth"}]}
{"smiles": "CCCC(=O)[O-].[Na+]", "note": "[sodium butyrate]", "values": [{"measurement": "therapeutic use to target transcription in APL", "setting": "[1]", "result": "successful even in retinoic acid resistant forms of the disease"}]}
{"smiles": "CC(/C=C/C(=O)NO)=C\\[C@@H](C)C(=O)c1ccc(N(C)C)cc1", "note": "[trichostatin A]", "values": [{"measurement": "cell cycle arrest and/or differentiation", "setting": "cell cycle", "result": "induce cell cycle arrest and/or differentiation"}]}
